# Test results as given in PMC7252619 (PLoS ONE, 2020).
# Where two headings read alike, the source gives them in different places.
# Legend:
# Test in all cases: Kinase activity test (ReactionBiology), % enzyme activity relative to DMSO
# Assay type in all cases: biochemical
# [1] = biological target: T1, NEK2 (Homo sapiens, UniProt P51955); details: NEK2;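 note: FDA-approved drugs chosen by structure-based repositioning, each screened at 10 or 1 µM for kinase activity, expressed as percent of DMSO controls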
# T1 construct: purchased ReactionBiology
# T1 sequence (P51955 1-445): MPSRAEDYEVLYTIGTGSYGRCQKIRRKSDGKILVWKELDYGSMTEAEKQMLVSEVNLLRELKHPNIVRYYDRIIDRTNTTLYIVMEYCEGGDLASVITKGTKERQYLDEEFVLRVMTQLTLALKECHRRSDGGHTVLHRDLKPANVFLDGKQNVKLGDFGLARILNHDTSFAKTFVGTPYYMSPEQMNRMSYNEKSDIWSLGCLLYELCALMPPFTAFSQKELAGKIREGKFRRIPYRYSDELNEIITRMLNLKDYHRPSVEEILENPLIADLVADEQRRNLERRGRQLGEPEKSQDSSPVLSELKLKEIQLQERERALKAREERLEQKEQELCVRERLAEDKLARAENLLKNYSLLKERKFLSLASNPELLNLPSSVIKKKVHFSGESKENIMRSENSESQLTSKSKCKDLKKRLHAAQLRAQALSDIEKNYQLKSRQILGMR
# [2] = biological target: T2, CK1d (Homo sapiens, UniProt P48730); details: CK1d; for % Enzyme Activity (relative to DMSO controls), Data 1 / remaining activity at 1 µM: 1 uM
# T2 construct: purchased ReactionBiology
# [3] = biological target: T3, DAPK1 (Homo sapiens, UniProt P53355); details: DAPK1
# T3 construct: purchased ReactionBiology
# [4] = biological target: VEGFR2 (Homo sapiens, UniProt P35968); parameters: purchased ReactionBiology; details: VEGFR2; for % Enzyme Activity (relative to DMSO controls), Data 1: replicate Data 1; for % Enzyme Activity (relative to DMSO controls), Data 2: replicate Data 2;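 for all read-outs here: VEGFR2 was one member of a ten-kinase screening panel testing marketed FDA-approved drugs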
# [5] = compound at 1 uM, average of Data 1 and Data 2
# [6] = compound at 10 uM, average of Data 1 and Data 2
# [7] = 10 uM, Average, read-out: % Enzyme Activity (relative to DMSO controls), Average
# [8] = 10 uM, replicate Data 1, read-out: % Enzyme Activity (relative to DMSO controls), Data 1
# [9] = 10 uM, replicate Data 2, read-out: % Enzyme Activity (relative to DMSO controls), Data 2
# [10] = 1 uM, Average, read-out: % Enzyme Activity (relative to DMSO controls), Average
# [11] = 1 uM, replicate Data 1, read-out: % Enzyme Activity (relative to DMSO controls), Data 1
# [12] = 1 uM, replicate Data 2, read-out: % Enzyme Activity (relative to DMSO controls), Data 2
# [13] = compound 1μM, relative to DMSO controls, read-out: % Enzyme activity at 1μM
# [14] = compound 10μM, relative to DMSO controls, read-out: % Enzyme activity at 10μM
# T3 sequence (P53355 whole entry): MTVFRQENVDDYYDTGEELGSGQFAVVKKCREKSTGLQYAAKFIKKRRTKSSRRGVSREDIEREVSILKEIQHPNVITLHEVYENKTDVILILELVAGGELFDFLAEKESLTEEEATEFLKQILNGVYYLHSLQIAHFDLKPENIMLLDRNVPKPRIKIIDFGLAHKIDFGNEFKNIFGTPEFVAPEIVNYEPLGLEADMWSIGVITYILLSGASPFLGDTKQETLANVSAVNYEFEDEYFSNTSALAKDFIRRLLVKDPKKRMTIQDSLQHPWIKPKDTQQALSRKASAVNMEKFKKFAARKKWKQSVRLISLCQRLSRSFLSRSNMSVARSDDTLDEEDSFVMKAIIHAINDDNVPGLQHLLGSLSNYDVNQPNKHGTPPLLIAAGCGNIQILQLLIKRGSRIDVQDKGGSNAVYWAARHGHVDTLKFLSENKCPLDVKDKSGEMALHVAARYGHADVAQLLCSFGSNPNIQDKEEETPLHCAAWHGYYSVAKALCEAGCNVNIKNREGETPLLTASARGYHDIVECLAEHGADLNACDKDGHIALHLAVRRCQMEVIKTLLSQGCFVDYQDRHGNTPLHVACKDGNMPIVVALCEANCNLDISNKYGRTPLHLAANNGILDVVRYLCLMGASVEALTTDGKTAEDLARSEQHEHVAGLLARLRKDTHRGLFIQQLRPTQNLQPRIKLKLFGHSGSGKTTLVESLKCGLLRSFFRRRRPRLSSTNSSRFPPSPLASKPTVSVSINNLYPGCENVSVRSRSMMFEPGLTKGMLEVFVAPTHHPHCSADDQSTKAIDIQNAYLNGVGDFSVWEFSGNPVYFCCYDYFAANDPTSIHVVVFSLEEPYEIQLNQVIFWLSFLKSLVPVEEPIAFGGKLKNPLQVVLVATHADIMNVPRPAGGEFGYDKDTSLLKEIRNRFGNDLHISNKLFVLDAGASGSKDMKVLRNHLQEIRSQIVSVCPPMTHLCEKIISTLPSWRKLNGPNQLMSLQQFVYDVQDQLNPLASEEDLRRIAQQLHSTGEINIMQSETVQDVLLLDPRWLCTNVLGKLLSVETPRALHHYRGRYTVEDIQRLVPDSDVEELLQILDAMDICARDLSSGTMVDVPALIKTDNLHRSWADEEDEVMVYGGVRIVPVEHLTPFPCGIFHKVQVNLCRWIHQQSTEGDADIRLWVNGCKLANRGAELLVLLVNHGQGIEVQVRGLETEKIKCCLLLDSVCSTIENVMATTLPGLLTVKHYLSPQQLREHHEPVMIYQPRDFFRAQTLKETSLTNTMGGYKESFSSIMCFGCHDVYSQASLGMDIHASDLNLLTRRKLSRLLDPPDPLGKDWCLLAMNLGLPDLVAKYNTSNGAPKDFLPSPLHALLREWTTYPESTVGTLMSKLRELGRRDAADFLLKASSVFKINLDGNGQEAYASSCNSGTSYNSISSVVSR
# Chain of VEGFR2 (P35968 20-1356): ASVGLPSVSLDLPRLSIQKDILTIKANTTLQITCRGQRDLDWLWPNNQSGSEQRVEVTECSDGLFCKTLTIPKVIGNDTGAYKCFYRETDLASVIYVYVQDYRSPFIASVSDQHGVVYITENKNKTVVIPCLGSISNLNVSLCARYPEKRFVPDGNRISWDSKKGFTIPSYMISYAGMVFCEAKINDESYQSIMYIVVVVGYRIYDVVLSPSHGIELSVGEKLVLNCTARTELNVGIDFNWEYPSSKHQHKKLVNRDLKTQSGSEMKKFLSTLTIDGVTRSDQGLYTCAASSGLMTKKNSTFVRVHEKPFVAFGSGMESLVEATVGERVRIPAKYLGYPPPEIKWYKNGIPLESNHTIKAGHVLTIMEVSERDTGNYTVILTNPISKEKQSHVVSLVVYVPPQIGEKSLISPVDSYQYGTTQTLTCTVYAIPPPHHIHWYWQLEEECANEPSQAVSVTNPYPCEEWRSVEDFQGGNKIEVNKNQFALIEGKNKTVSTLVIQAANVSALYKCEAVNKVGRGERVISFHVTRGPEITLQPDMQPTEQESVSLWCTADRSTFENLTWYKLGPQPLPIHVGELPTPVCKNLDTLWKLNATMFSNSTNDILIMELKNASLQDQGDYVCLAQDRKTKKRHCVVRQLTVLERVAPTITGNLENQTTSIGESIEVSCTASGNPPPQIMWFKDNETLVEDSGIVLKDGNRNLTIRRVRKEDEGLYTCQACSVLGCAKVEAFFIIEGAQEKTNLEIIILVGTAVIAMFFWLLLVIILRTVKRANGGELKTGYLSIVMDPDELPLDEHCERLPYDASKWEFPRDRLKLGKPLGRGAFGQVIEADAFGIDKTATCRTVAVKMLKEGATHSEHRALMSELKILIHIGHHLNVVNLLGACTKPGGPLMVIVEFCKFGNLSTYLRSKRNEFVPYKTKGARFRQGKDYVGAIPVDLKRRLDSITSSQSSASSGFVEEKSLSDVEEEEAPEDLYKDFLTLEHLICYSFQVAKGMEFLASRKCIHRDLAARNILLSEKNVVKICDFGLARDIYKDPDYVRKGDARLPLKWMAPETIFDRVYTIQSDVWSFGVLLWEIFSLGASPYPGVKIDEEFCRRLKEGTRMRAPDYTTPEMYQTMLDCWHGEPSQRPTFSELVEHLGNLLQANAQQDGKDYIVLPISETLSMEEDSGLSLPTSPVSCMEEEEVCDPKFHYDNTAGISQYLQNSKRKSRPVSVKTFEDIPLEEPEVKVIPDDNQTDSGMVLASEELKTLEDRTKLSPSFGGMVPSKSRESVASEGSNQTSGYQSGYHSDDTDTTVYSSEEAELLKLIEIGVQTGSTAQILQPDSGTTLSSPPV
# T2 sequence (P48730 whole entry): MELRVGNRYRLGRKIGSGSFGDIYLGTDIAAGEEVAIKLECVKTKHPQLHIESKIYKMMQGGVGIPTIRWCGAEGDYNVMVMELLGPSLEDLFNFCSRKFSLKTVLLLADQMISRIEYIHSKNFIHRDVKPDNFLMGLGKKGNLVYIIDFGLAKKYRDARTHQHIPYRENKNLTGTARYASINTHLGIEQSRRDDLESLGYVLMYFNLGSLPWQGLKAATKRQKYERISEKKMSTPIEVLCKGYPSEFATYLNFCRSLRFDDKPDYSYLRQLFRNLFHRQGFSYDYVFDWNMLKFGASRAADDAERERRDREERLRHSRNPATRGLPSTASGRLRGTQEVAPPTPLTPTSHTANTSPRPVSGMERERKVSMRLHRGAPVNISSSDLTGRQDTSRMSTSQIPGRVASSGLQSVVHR
compound,measurement,setting,value
Cc1nnc(C(C)C)n1C1C[C@H]2CC[C@@H](C1)N2CC[C@H](NC(=O)C1CCC(F)(F)CC1)c1ccccc1 (stereo in doubt) [Maraviroc],"% Enzyme Activity (relative to DMSO controls), Average","[1]; 1 uM, Average",95.71%
same,"% Enzyme Activity (relative to DMSO controls), Data 1","[1]; 1 uM, replicate Data 1",89.78%
same,"% Enzyme Activity (relative to DMSO controls), Data 2","[1]; 1 uM, replicate Data 2",101.63%
same,"% Enzyme Activity (relative to DMSO controls), Average","[1]; 10 uM, Average",100.82%
same,"% Enzyme Activity (relative to DMSO controls), Data 1","[1]; 10 uM, replicate Data 1",99.97%
same,"% Enzyme Activity (relative to DMSO controls), Data 2","[1]; 10 uM, replicate Data 2",101.67%
Nc1nc2c(ncn2COCCO)c(=O)[nH]1 [Acyclovir],"% Enzyme Activity (relative to DMSO controls), Average","[1]; 1 uM, Average",93.64%
same,"% Enzyme Activity (relative to DMSO controls), Data 1","[1]; 1 uM, replicate Data 1",83.95%
same,"% Enzyme Activity (relative to DMSO controls), Data 2","[1]; 1 uM, replicate Data 2",103.33%
same,"% Enzyme Activity (relative to DMSO controls), Average","[1]; 10 uM, Average",100.63%
same,"% Enzyme Activity (relative to DMSO controls), Data 1","[1]; 10 uM, replicate Data 1",101.40%
same,"% Enzyme Activity (relative to DMSO controls), Data 2","[1]; 10 uM, replicate Data 2",99.86%
CC(=O)OCC1=C(C(=O)O)N2C(=O)[C@@H](NC(=O)Cc3cccs3)[C@H]2SC1 [Cephalothin],"% Enzyme Activity (relative to DMSO controls), Average",[1]; [5],98.03%
same,"% Enzyme Activity (relative to DMSO controls), Data 1","[1]; compound at 1 uM, replicate 1",94.64%
same,"% Enzyme Activity (relative to DMSO controls), Data 2","[1]; compound at 1 uM, replicate 2",101.41%
same,"% Enzyme Activity (relative to DMSO controls), Average",[1]; [6],78.52%
same,"% Enzyme Activity (relative to DMSO controls), Data 1","[1]; compound at 10 uM, replicate 1",86.91%
same,"% Enzyme Activity (relative to DMSO controls), Data 2","[1]; compound at 10 uM, replicate 2",70.13%
CC(C)CN(C[C@@H](O)[C@H](Cc1ccccc1)NC(=O)O[C@H]1CO[C@H]2OCC[C@H]21)S(=O)(=O)c1ccc(N)cc1 [Darunavir],"% Enzyme Activity (relative to DMSO controls), Data 1",[2]; replicate Data 1,116.81%
same,"% Enzyme Activity (relative to DMSO controls), Data 1","[3]; 1 uM, replicate Data 1",101.48%
same,"% Enzyme Activity (relative to DMSO controls), Data 1","[3]; 10 uM, replicate Data 1",82.12%
same,"% Enzyme Activity (relative to DMSO controls), Data 1",[4]; 1 uM,105.45%
same,"% Enzyme Activity (relative to DMSO controls), Data 1",[4]; 10 uM,98.21%
Nc1nc2c(ncn2COC(CO)CO)c(=O)[nH]1 [Ganciclovir],"% Enzyme Activity (relative to DMSO controls), Average",[1]; [5],111.12%
same,"% Enzyme Activity (relative to DMSO controls), Data 1","[1]; compound at 1 uM, replicate 1",112.02%
same,"% Enzyme Activity (relative to DMSO controls), Data 2","[1]; compound at 1 uM, replicate 2",110.21%
same,"% Enzyme Activity (relative to DMSO controls), Average",[1]; [6],89.44%
same,"% Enzyme Activity (relative to DMSO controls), Data 1","[1]; compound at 10 uM, replicate 1",97.24%
same,"% Enzyme Activity (relative to DMSO controls), Data 2","[1]; compound at 10 uM, replicate 2",81.63%
c1coc(CNc2ncnc3[nH]cnc23)c1 [Kinetin],"% Enzyme Activity (relative to DMSO controls), Average",[1]; [5],107.09%
same,"% Enzyme Activity (relative to DMSO controls), Data 1","[1]; compound at 1 uM, replicate 1",107.23%
same,"% Enzyme Activity (relative to DMSO controls), Data 2","[1]; compound at 1 uM, replicate 2",106.95%
same,"% Enzyme Activity (relative to DMSO controls), Average",[1]; [6],94.02%
same,"% Enzyme Activity (relative to DMSO controls), Data 1","[1]; compound at 10 uM, replicate 1",94.51%
same,"% Enzyme Activity (relative to DMSO controls), Data 2","[1]; compound at 10 uM, replicate 2",93.52%
Cc1ccc(Nc2c(F)cccc2Cl)c(CC(=O)O)c1 [Lumiracoxib],"% Enzyme Activity (relative to DMSO controls), Average","[2]; 10 uM, Average",99.41%
same,"% Enzyme Activity (relative to DMSO controls), Average","[3]; 1 uM, Average",98.27%
same,"% Enzyme Activity (relative to DMSO controls), Average","[3]; 10 uM, Average",101.02%
OC[C@@H](O)[C@@H](O)[C@H](O)[C@H](O)CO [Mannitol],"% Enzyme Activity (relative to DMSO controls), Average",[1]; [5],113.06%
same,"% Enzyme Activity (relative to DMSO controls), Data 1","[1]; compound at 1 uM, replicate 1",110.81%
same,"% Enzyme Activity (relative to DMSO controls), Data 2","[1]; compound at 1 uM, replicate 2",115.31%
same,"% Enzyme Activity (relative to DMSO controls), Average",[1]; [6],102.41%
same,"% Enzyme Activity (relative to DMSO controls), Data 1","[1]; compound at 10 uM, replicate 1",100.39%
same,"% Enzyme Activity (relative to DMSO controls), Data 2","[1]; compound at 10 uM, replicate 2",104.43%
Cc1ccc(Cl)c(Nc2ccccc2C(=O)O)c1Cl [Meclofenamate],"% Enzyme Activity (relative to DMSO controls), Data 1",[2]; replicate Data 1,125.84%
same,"% Enzyme Activity (relative to DMSO controls), Data 1","[3]; 1 uM, replicate Data 1",121.09%
same,"% Enzyme Activity (relative to DMSO controls), Data 1","[3]; 10 uM, replicate Data 1",115.51%
same,"% Enzyme Activity (relative to DMSO controls), Data 1",[4]; 1 uM,108.3%
same,"% Enzyme Activity (relative to DMSO controls), Data 1",[4]; 10 uM,109.87%
N=C(N)c1ccc(OCCCCCOc2ccc(C(=N)N)cc2)cc1 [Pentamidine],"% Enzyme Activity (relative to DMSO controls), Data 2","[3]; 10 uM, replicate Data 2",88.42%
same,"% Enzyme Activity (relative to DMSO controls), Data 2",[4]; 10 uM,93.27%
CC(=O)CCCCn1c(=O)c2c(ncn2C)n(C)c1=O [Pentoxifylline],"% Enzyme Activity (relative to DMSO controls), Average","[1]; 1 uM, Average",90.71%
same,"% Enzyme Activity (relative to DMSO controls), Data 1","[1]; 1 uM, replicate Data 1",91.06%
same,"% Enzyme Activity (relative to DMSO controls), Data 2","[1]; 1 uM, replicate Data 2",90.35%
same,"% Enzyme Activity (relative to DMSO controls), Average","[1]; 10 uM, Average",88.11%
same,"% Enzyme Activity (relative to DMSO controls), Data 1","[1]; 10 uM, replicate Data 1",86.43%
same,"% Enzyme Activity (relative to DMSO controls), Data 2","[1]; 10 uM, replicate Data 2",89.78%
"CC(C)(C)NC(=O)[C@@H]1C[C@@H]2CCCC[C@@H]2CN1C[C@@H](O)[C@H](Cc1ccccc1)NC(=O)[C@H](CC(N)=O)NC(=O)c1ccc2ccccc2n1 [Saquinavir, reference compound]",remaining activity at 1 µM,"[2]; Average, read-out: % Enzyme Activity (relative to DMSO controls), Average",109%
same,remaining activity at 1 µM,"[2]; replicate Data 1, read-out: % Enzyme Activity (relative to DMSO controls), Data 1",107%
same,remaining activity at 1 µM,"[2]; replicate Data 2, read-out: % Enzyme Activity (relative to DMSO controls), Data 2",111%
same,remaining activity at 10 µM,[2]; [7],121%
same,remaining activity at 10 µM,[2]; [8],123%
same,remaining activity at 10 µM,[2]; [9],119%
same,remaining activity at 1 µM,[3]; [10],87.1%
same,remaining activity at 1 µM,[3]; [11],88.8%
same,remaining activity at 1 µM,[3]; [12],85.3%
same,remaining activity at 10 µM,[3]; [7],27.8%
same,remaining activity at 10 µM,[3]; [8],27.8%
same,remaining activity at 10 µM,[3]; [9],27.8%
same,remaining activity at 1 µM,[3]; [13],87.1%
same,remaining activity at 10 µM,[3]; [14],27.8%
"CN(C)CCOc1ccc(/C(=C(/CCCl)c2ccccc2)c2ccccc2)cc1 [Toremifene, reference compound]",remaining activity at 1 µM,[3]; [10],90.4%
same,remaining activity at 1 µM,[3]; [11],70.4%
same,remaining activity at 1 µM,[3]; [12],110%
same,remaining activity at 10 µM,[3]; [7],14.8%
same,remaining activity at 10 µM,[3]; [8],14.9%
same,remaining activity at 10 µM,[3]; [9],14.6%
same,remaining activity at 1 µM,[3]; [13],90.4%
same,remaining activity at 10 µM,[3]; [14],14.8%
CN1[C@@H]2CC[C@H]1C[C@@H](OC(=O)c1c[nH]c3ccccc13)C2 [Tropisetron],"% Enzyme Activity (relative to DMSO controls), Average","[3]; 1 uM, Average",100.48%
same,"% Enzyme Activity (relative to DMSO controls), Data 1","[3]; 1 uM, replicate Data 1",103.12%
same,"% Enzyme Activity (relative to DMSO controls), Data 2","[3]; 1 uM, replicate Data 2",97.84%
same,"% Enzyme Activity (relative to DMSO controls), Average","[3]; 10 uM, Average",91.18%
same,"% Enzyme Activity (relative to DMSO controls), Data 1","[3]; 10 uM, replicate Data 1",92.93%
same,"% Enzyme Activity (relative to DMSO controls), Data 2","[3]; 10 uM, replicate Data 2",89.43%
same,"% Enzyme Activity (relative to DMSO controls), Average",[4]; 1 uM,100.61%
same,"% Enzyme Activity (relative to DMSO controls), Data 1",[4]; 1 uM,99.56%
same,"% Enzyme Activity (relative to DMSO controls), Data 2",[4]; 1 uM,101.65%
same,"% Enzyme Activity (relative to DMSO controls), Average",[4]; 10 uM,97.73%
same,"% Enzyme Activity (relative to DMSO controls), Data 1",[4]; 10 uM,102.27%
same,"% Enzyme Activity (relative to DMSO controls), Data 2",[4]; 10 uM,93.19%
Acarbose,"% Enzyme Activity (relative to DMSO controls), Average","[3]; 1 uM, Average",112.14%
same,"% Enzyme Activity (relative to DMSO controls), Data 1","[3]; 1 uM, replicate Data 1",116.25%
same,"% Enzyme Activity (relative to DMSO controls), Data 2","[3]; 1 uM, replicate Data 2",108.03%
same,"% Enzyme Activity (relative to DMSO controls), Average","[3]; 10 uM, Average",96.08%
same,"% Enzyme Activity (relative to DMSO controls), Data 1","[3]; 10 uM, replicate Data 1",99.05%
same,"% Enzyme Activity (relative to DMSO controls), Data 2","[3]; 10 uM, replicate Data 2",93.1%
